# Test results from patent publication US8906430B2, “Use of hypericum perforatum extracts in the treatment of neuropathic pain” (Aboca S.p.A. Societa' Agricola, priority 2008, dated 2014).
# Experiments:
# [1] = system: monosodium iodoacetate-induced osteoarthritis pain; assay: Pain caused by monosodium iodoacetate-induced osteoarthritis of the knee, rat paw pressure test; assay type: in vivo; conditions: MIA, 0.11 mg/kg p.o.
# Source text: The reduction in the pain threshold was induced by a single administration of monoiodoacetate (MIA) into the […] of the rat (Ref. 27). [table]
# neuropathic pain = assay: Experimental models of neuropathic pain (summary statements); assay type: in vivo, rodents; conditions: for Ability to reduce neuropathic pain: isolated phloroglucinol derivatives
# Procedure: The studies were conducted on rodents, which have always constituted a good animal model to reproduce the characteristics of human pain symptoms and predict possible remedies.
# [2] = system: oxaliplatin-induced hyperalgesia; assay: Oxaliplatin-induced hyperalgesia, rat paw pressure test; assay type: in vivo; conditions: oxaliplatin i.p., hypericin 0.11 mg/kg + CMC p.o., single administration
# Procedure: A reduction in the pain threshold was induced by administering oxaliplatin 2.4 mg/kg for 5 consecutive days for a total of 3 weeks. By the end of the treatment period, the pain perception threshold of the rats was statistically lower than that of the controls (Ref. 23). Using the same method as in Example 1, the following results were obtained by administering hypericin at the doses indicated in Table 5.
# [3] = system: mononeuropathy induced by ligature of the sciatic nerve; assay: Right-side mononeuropathy induced by ligature of the sciatic nerve, rat paw pressure test; assay type: in vivo; parameters: unit not given beside the values; conditions: 0.11 mg/kg p.o.
# Procedure: Neuropathic pain is characterised by the development of an altered perception of pain, which is manifested as continuous spontaneous pain and hyperalgesia. In this model, the rats were anaesthetised with chloral hydrate 400 mg/kg i.p. or sodium pentobarbital 40 mg/kg i.p. The sciatic nerve was then exposed at thigh level by retracting the femoral biceps. Proximally to the trifurcation of the sciatic nerve, approx. 7 mm of nerve was released from the membranes and 4 loose ligatures were tied round the nerve, approx. 1 mm apart. In another group of animals an identical incision was made, but without the nerve ligature (sham operation). Neuropathy developed in 14 days. The tests with the potentially analgesic substances were performed on the 14th and 21st days after the operation using the paw pressure test (ref. 24).
# Using the same method as in Example 2, the following results were obtained by administering hypericin at the doses indicated in Table 6.
structure (smiles),measurement,setting,value
"Cc1cc(O)c2c(=O)c3c(O)cc(O)c4c5c(O)cc(O)c6c(=O)c7c(O)cc(C)c8c1c2c(c34)c(c78)c65 [HYPERICIN, hypericin]",Rat paw pressure test,[1]; 15 min after treatment,45.9 ± 2.7
same,Rat paw pressure test,[1]; 30 min after treatment,49.7 ± 3.8
same,Rat paw pressure test,[1]; 45 min after treatment,42.8 ± 3.9
same,Rat paw pressure test,[1]; 60 min after treatment,31.7 ± 3.5
same,Rat paw pressure test,[1]; Pre-test,23.4 ± 3.3
same,Activity on neuropathic pain,neuropathic pain; at a dose corresponding to its concentration in freeze-dried extracts,active
same,Pressure on rats' paws,[2]; 3rd week + 15 min,44.1 ± 2.8 g
same,Pressure on rats' paws,[2]; 3rd week + 30 min,55.0 ± 2.2 g
same,Pressure on rats' paws,[2]; 3rd week + 45 min,53.3 ± 2.6 g
same,Pressure on rats' paws,[2]; 3rd week + 60 min,31.3 ± 3.0 g
same,Pressure on rats' paws,[2]; 3rd week Pre-test,32.4 ± 2.0 g
same,Pressure on rats' paws,[2]; Pre-test before all treatments,63.2 ± 3.5 g
same,Rat paw pressure test (Paw),"[3]; paw L, 4 min after treatment",24.8 ± 3.9
same,Rat paw pressure test (Paw),"[3]; paw L, 15 min after treatment",23.8 ± 3.3
same,Rat paw pressure test (Paw),"[3]; paw L, 30 min after treatment",22.7 ± 2.1
same,Rat paw pressure test (Paw),"[3]; paw L, 60 min after treatment",21.5 ± 3.0
same,Rat paw pressure test (Paw),"[3]; paw L, before treatment",21.6 ± 2.7
same,Rat paw pressure test (Paw),"[3]; paw R, 4 min after treatment",41.6 ± 2.7
same,Rat paw pressure test (Paw),"[3]; paw R, 15 min after treatment",28.1 ± 1.2
same,Rat paw pressure test (Paw),"[3]; paw R, 30 min after treatment",43.7 ± 2.0
same,Rat paw pressure test (Paw),"[3]; paw R, 60 min after treatment",25.9 ± 2.2
same,Rat paw pressure test (Paw),"[3]; paw R, before treatment",24.3 ± 4.6
CCC(C)C(=O)[C@@]12C(=O)C(CC=C(C)C)=C(O)[C@@](CC=C(C)C)(C[C@H](CC=C(C)C)[C@@]1(C)CCC=C(C)C)C2=O (stereo partly drawn) [adihyperforin],Ability to reduce neuropathic pain,neuropathic pain,unable to reduce neuropathic pain
CC(C)=CCC[C@]1(C)[C@@H](CC=C(C)C)C[C@@]2(CC=C(C)C)C(=O)[C@]1(C(=O)C(C)C)C(=O)C(CC=C(C)C)=C2O [hyperforin],Ability to reduce neuropathic pain,neuropathic pain,unable to reduce neuropathic pain
